Assay: Solubility
Format: physicochemical

In the case of CC(C)(O)CC[C@H](C[C@H](O)[C@H](Cc1cccs1)NC(=O)c1cnc2ccccc2n1)C(N)=O [Example 313, Quinoxaline-2-carboxylic Acid (4(r)-carbamoyl-2(s),7-dihydroxy-7-methyl-1(s)-thiophen-2-ylmethyl-octyl)-amide], the solubility is reported as greater than 250 mg/mL.

Assay: not given

First: CNC(=O)[C@H](CCC(C)C)C[C@H](O)[C@H](Cc1cccc(F)c1)NC(=O)c1cnc2ccccc2n1 [Example 134, Quinoxaline-2-carboxylic acid [1(S)-(3-fluoro-benzyl)-2(S)-hydroxy-7-methyl-4(R)-methylcarbamoyl-octyl]-amide]
Second: CC(C)CC[C@H](C[C@H](O)[C@H](Cc1cccc(F)c1)NC(=O)c1cnc2ccccc2n1)C(N)=O [Example 135, Quinoxaline-2-carboxylic acid [4(R)-carbamoyl-1(S)-(3-fluoro-benzyl)-2(S)-hydroxy-7-methyl-octyl]-amide]
The melting point of the first is lower: 158.5 to 159.5 °C for the first, 191 to 191.5 °C for the second.

Compared with CC(C)CNC(=O)CC[C@H](O)[C@H](Cc1ccccc1)NC(=O)c1cnc2ccccc2n1 [Example 294, Quinoxaline-2-carboxylic acid (1(S)-benzyl-2(S)-hydroxy-4-isobutylcarbamoyl-butyl)-amide], NC(=O)[C@@H](C[C@H](O)[C@H](Cc1ccccc1)NC(=O)c1cnc2ccccc2n1)C1(O)CCCC1 [Example 277, Quinoxaline-2-carboxylic acid [1(S)-benzyl-4(S)-carbamoyl-2(S)-hydroxy-4-(1-hydroxy-cyclopentyl)-butyl]-amide] is higher in melting point: 146 to 148 °C for the first, 192 to 195 °C for the second.

Compared with CNC(=O)[C@H](CC(C)C)C[C@H](O)[C@H](Cc1ccc(Cl)cc1)NC(=O)c1cnc2ccccc2c1 [Example 67, Quinoline-3-carboxylic acid [1(S)-(4-chloro-benzyl)-2(S)-hydroxy-6-methyl-4(R)-methylcarbamoyl-heptyl]-amide], CNC(=O)[C@H](CC(C)C)C[C@H](O)[C@H](Cc1ccc(O)cc1)NC(=O)c1cnc2ccccc2c1 [Example 44, Quinoline-3-carboxylic acid [2(S)-hydroxy-1(S)-(4-hydroxy-benzyl)-6-methyl-4(R)-methylcarbamoyl-heptyl]-amide] is higher in melting point: 212.5 to 213.5 °C for the first, 220.5 to 222.5 °C for the second.

First: CC(C)(F)CC[C@H](C[C@H](O)[C@H](Cc1ccc(I)cc1)NC(=O)c1cnc2ccccc2n1)C(N)=O [Example 250, Quinoxaline-2-carboxylic acid [4(R)-carbamoyl-7-fluoro-2(S)-hydroxy-1(S)-(4-iodo-benzyl)-7-methyl-octyl]-amide]
Second: CC(C)(F)CC[C@H](C[C@H](O)[C@H](Cc1cccc(F)c1)NC(=O)c1cnc2ccccc2n1)C(N)=O [Example 245, Quinoxaline-2-carboxylic acid [4(R)-carbamoyl-7-fluoro-1(S)-(3-fluoro-benzyl)-2(S)-hydroxy-7-methyl-octyl]-amide]
The melting point of the first is lower: 185.5 to 187.5 °C for the first, 225 to 227 °C for the second.

First: NC(=O)[C@H](Cc1ccccc1)C[C@H](O)[C@H](Cc1ccccc1)NC(=O)c1cnc2c(F)cccc2c1 [Example 285, 8-Fluoro-quinoline-3-carboxylic acid (1(S)-benzyl-4(R)-carbamoyl-2(S)-hydroxy-5-phenyl-pentyl)-amide]
Second: NC(=O)[C@H](Cc1ccccc1)C[C@H](O)[C@H](Cc1ccccc1)NC(=O)c1cnc2c(F)c(F)ccc2c1 [Example 273, 7,8-Difluoro-quinoline-3-carboxylic acid (1(S)-benzyl-4(R)-carbamoyl-2(S)-hydroxy-5-phenyl-pentyl)-amide]
The melting point of the first is lower: 206 to 209 °C for the first, 233 to 235 °C for the second.

First: NC(=O)[C@H](Cc1ccccc1)C[C@H](O)[C@H](Cc1ccccc1)NC(=O)c1cnc2ccccc2c1 [Example 287, Quinoline-3-carboxylic acid (1(S)-benzyl-4(R)-carbamoyl-2(S)-hydroxy-5-phenyl-pentyl)-amide]
Second: COc1cccc(C[C@H](C[C@H](O)[C@H](Cc2ccccc2)NC(=O)c2cnc3ccccc3n2)C(N)=O)c1 [Example 299, Quinoxaline-2-carboxylic acid [1(S)-benzyl-4(R)-carbamoyl-2(S)-hydroxy-5-(3-methoxy-phenyl)-pentyl]-amide]
The melting point of the first is higher: 203 to 206 °C for the first, 147 to 148 °C for the second.

First: CNC(=O)[C@H](CC1CCCCC1)C[C@H](O)[C@H](CC1CCCCC1)NC(=O)c1cc2ccccc2cn1 [Example 59, Isoquinoline-3-carboxylic acid (5-cyclohexyl-1(S)-cyclohexylmethyl-2(S)-hydroxy-4(R)-methylcarbamoyl-pentyl)-amide]
Second: CNC(=O)[C@H](CC1CCCCC1)C[C@H](O)[C@H](CC1CCCCC1)NC(=O)c1cncc2ccccc12 [Example 62, Isoquinoline-4-carboxylic acid (5-cyclohexyl-1(S)-cyclohexylmethyl-2(S)-hydroxy-4(R)-methylcarbamoyl-pentyl)-amide]
The melting point of the first is lower: 205 to 207 °C for the first, 220.5 to 224 °C for the second.

First: NC(=O)[C@H](C[C@H](O)[C@H](Cc1cccs1)NC(=O)c1cnc2ccccc2n1)C1(O)CCCCC1 [Example 268, Quinoxaline-2-carboxylic acid [4(R)-carbamoyl-2(S)-hydroxy-4-(1-hydroxy-cyclohexyl)-1(S)-thiophen-2-ylmethyl-butyl]-amide]
Second: NC(=O)[C@@H](C[C@H](O)[C@H](Cc1ccccc1)NC(=O)c1cnc2ccccc2n1)C1(O)CCC(F)(F)CC1 [Example 306, Quinoxaline-2-carboxylic acid [1(S)-benzyl-4(S)-carbamoyl-4-(4,4-difluoro-1-hydroxy-cyclohexyl)-2(S)-hydroxy-butyl]-amide]
The melting point of the first is lower: 206 to 207 °C for the first, 207.5 to 208.5 °C for the second.

Compared with NC(=O)[C@H](Cc1ccc(OC(F)(F)F)cc1)C[C@H](O)[C@H](Cc1ccccc1)NC(=O)c1cnc2ccccc2n1 [Example 193, Quinoxaline-2-carboxylic acid [1(S)-benzyl-4(R)-carbamoyl-2(S)-hydroxy-5-(4-trifluoromethoxy-phenyl)-pentyl]-amide], CC(C)(F)CC[C@H](C[C@H](O)[C@H](Cc1ccccc1)NC(=O)c1cnc2ccccc2n1)C(=O)NCc1cccnc1 [Example 199, Quinoxaline-2-carboxylic acid {1(S)-benzyl-7-fluoro-2(S)-hydroxy-7-methyl-4(R)-[(pyridin-3-ylmethyl)-carbamoyl]-octyl}-amide] is higher in melting point: 184 to 187 °C for the first, 188 to 191 °C for the second.

First: CNC(=O)[C@H](CC1CCCCC1)C[C@H](O)[C@H](Cc1ccc(Cl)cc1)NC(=O)c1cnc2ccccc2c1 [Example 71, Quinoline-3-carboxylic acid [1(S)-(4-chloro-benzyl)-5-cyclohexyl-2(S)-hydroxy-4(R)-methylcarbamoyl-pentyl]-amide]
Second: CNC(=O)[C@H](CC(C)C)C[C@H](O)[C@H](Cc1ccc(F)cc1)NC(=O)c1cnc2ccccc2c1 [Example 89, Quinoline-3-carboxylic acid [1(S)-(4-fluoro-benzyl)-2(S)-hydroxy-6-methyl-4(R)-methylcarbamoyl-heptyl]-amide]
The melting point of the first is higher: 198 to 201 °C for the first, 184 to 186 °C for the second.

First: NC(=O)[C@@H](C[C@H](O)[C@H](Cc1ccccc1)NC(=O)c1cnc2ccccc2n1)C1(O)C2CCCC1CCC2 (stereo partly drawn) [Example 296, Quinoxaline-2-carboxylic acid [1(S)-benzyl-4(S)-carbamoyl-2(S)-hydroxy-4-(9-hydroxy-bicyclo[3.3.1]non-9-yl)-butyl]-amide]
Second: NC(=O)[C@@H](C[C@H](O)[C@H](Cc1ccccc1)NC(=O)c1cnc2ccccc2n1)C1(O)CCC(C(F)(F)F)CC1 (stereo partly drawn) [Example 308, Quinoxaline-2-carboxylic acid [1(S)-benzyl-4(S)-carbamoyl-2(S)-hydroxy-4-(1-hydroxy-4-trifluoromethyl-cyclohexyl)-butyl]-amide]
The melting point of the first is higher: 268 to 269 °C for the first, 250 to 252 °C for the second.

CC(C)(F)CC[C@H](C[C@H](O)[C@H](Cc1ccccc1)NC(=O)c1cnc2ccccc2n1)C(=O)NCCc1ccccn1 [Example 205, Quinoxaline-2-carboxylic acid [1(S)-benzyl-7-fluoro-2(S)-hydroxy-7-methyl-4(R)-(2-pyridin-2-yl-ethylcarbamoyl)-octyl]-amide] and CC(C)(F)CC[C@H](C[C@H](O)[C@H](Cc1ccccc1)NC(=O)c1cnc2ccccc2n1)C(=O)NCc1ccco1 [Example 234, Quinoxaline-2-carboxylic acid {1(S)-benzyl-7-fluoro-4(R)-[(furan-2-ylmethyl)-carbamoyl]-2(S)-hydroxy-7-methyl-octyl}-amide] cannot be ordered by melting point: 155 to 156 °C for the first, 155.5 to 156.5 °C for the second.

First: CCSCCNC(=O)[C@H](CCC(C)(C)F)C[C@H](O)[C@H](Cc1ccccc1)NC(=O)c1cnc2ccccc2n1 [Example 218, Quinoxaline-2-carboxylic acid [1(S)-benzyl-4(R)-(2-ethylsulfanyl-ethylcarbamoyl)-7-fluoro-2(S)-hydroxy-7-methyl-octyl]-amide]
Second: CC(C)(O)CC[C@H](C[C@H](O)[C@H](Cc1ccccc1F)NC(=O)c1cnc2ccccc2n1)C(=O)NO [Example 320, Quinoxaline-2-carboxylic acid [1(S)-(2-fluoro-benzyl)-2(S),7-dihydroxy-4(R)-hydroxycarbamoyl-7-methyl-octyl]-amide]
The melting point of the first is lower: 78 to 79 °C for the first, 130 to 131 °C for the second.

Reference: patent US20040087571A1, “Methods of using CCR1 antagonists as immunomodulatory agents” (Pfizer Inc, priority 2002, published 2004)
